Earlier results on one compound are cited in patent US20050159809A1, “Implantable medical devices for treating or preventing restenosis” (Medtronic Vascular, Inc., priority 2004, published 2005).

For the series, the system named is balloon-injury induced neointimal thickening and macrophage accumulation. The conditions noted are these: four weeks after balloon de-endothelialization.

With `CC(C)(Sc1cc(C(C)(C)C)c(O)c(C(C)(C)C)c1)Sc1cc(C(C)(C)C)c(O)c(C(C)(C)C)c1` [probucol, {[bis(3,5-di-tert-butyl-4-hydroxyphenyl)thio]propane}], the absolute neointima thickness result (high cholesterol rabbit food plus 1% probucol vs cholesterol-only diet, P<0.05) was “reduced”. Where the note is “high cholesterol rabbit food plus 1% probucol vs high cholesterol feed without probucol, P<0.001”, the “macrophage content in the neointima” value was “lower”.
